The results in this text go back to patent US20100233676A1, “HIGH AFFINITY FLUOROCHROME BINDING PEPTIDES” (priority 2007, published 2010).

For assay [1], the system named is IQSPHFF peptide (SEQ ID NO:1), displayed on phage. The assay can be described thus: Binding of IQSPHFF phage to BSA-conjugated fluorochromes. The conditions noted are these: FIG. 3A. The procedure:
FIG. 3 presents exemplary data showing molecular modeling of IQSPHFF binding to VT-680. FIG. 3A. Binding affinities of IQSPHFF phage to BSA-conjugated fluorochromes via ELISA. FIG. 3B. Schematic π-π bonding between the phenylalanines of the peptide and the indole or benzoindole subunit of VT680 FIG. 3C. […] FIG. 3D. Illustrating a possible interaction of the peptide hydrophobic isoleucine and the hydrophobic alkene of the fluorochrome.
The affinity of IQSPHFF was determined using […] for different commercially available benzindol fluorochromes (Cy 3.5, Cy 5.5, VT680 and AF750). […] FIG. 3A.
The N-hydroxysuccinimide (NHS) ester of the benzindol fluorochromes VT680, GH680, Cy3.5, Cy5.5 or AF750 (1 mg) were conjugated to bovine serum albumin (BSA 100 mg/mL; 0.3 M NaCO3 buffer, pH 8.6) under reaction conditions of approximately tenfold molar excess VT680 to BSA. BSA-fluorochrome conjugate or BSA was adsorbed (5.0 μg/0.1 ml well, w/vol) overnight to wells of a Nunc Maxisorp plage (Nunc, Rochester, N.Y.). Supernatants were discarded and washed twice with PBS and blocked (5% BSA, 0.3 M NaCO3, pH 8.6, room temperature, 45 min). […]
Readout was depicted as the mean difference between absorbances in the BSA-fluorochrome containing wells and the BSA-only (negative control) wells. […]

In a further assay the test system is HT1080 cells. The assay can be described thus: In vitro cell labeling of HT1080 cells, fluorescence plate reader. In kind it is cell-based. The following applies: free (unconjugated) peptide. The procedure: HT1080 […] cells (20,000 cells/well) were washed 3× with PBS to remove media then incubated with 0.1 mL of […] of Ac-IQSPHFF-NHS peptide or vehicle (PBS with 1% DMSO) for 1 hour at 37° C. Subsequent to incubation, cells were washed then incubated for 1 hour at 37° C. in the dark with 1 nmole of GH680 or 1 nmole of GH680+5 nmoles of underivatized peptide (competition experiment). Cells were then washed 6× with PBS+0.1% Tween 20 and analyzed via fluorescence plate reader GeminiXS (Molecular Devices). The IQSPHFF peptide sequence was covalently conjugated onto HT1080 cells and incubated with 5 nM of NIRF (VT680). Cells conjugated with IQSPHFF bound VT680>120-fold better than cells not conjugated with IQSPHFF. In addition, free (unconjugated) IQSPHFF peptide was able to compete for 98% of the binding of fluorochrome to peptide labeled cells, indicating the specificity of the interaction. FIG. 8A.

Turning to Cy5.5, in assay [1], the “affinity of IQSPHFF, relative between fluorochromes” value is “approximately four-fold less biding than VT680”.

With IQSPHFF, the “competition of fluorochrome binding to peptide labeled cells by free peptide” value with HT1080 cells turned out to be 98%.
